Earlier results as cited in patent US11712422B2, “Pharmaceutical compositions comprising activated carbon” (FERRING B.V., priority 2012, dated 2023).

c1ccc2[nH]ccc2c1 [Indole]
Log P: 2.14
